Assay in all cases: NCI-60 cell line screen, 48 h
Assay [1] has as its system M19-MEL melanoma.
Assay [2] relates to CAKI-1 renal.
In assay [3] the test system is SR leukemia.
For assay [4], the system named is LXFL 529 NSCLC.
The test system of assay [5] is SK-MEL-5 melanoma.
For assay [6], the system named is MCF7 breast.
Assay [7] relates to UACC-62 melanoma.
In assay [8] the test system is MDA-MB-231 breast.
Assay [9] relates to OVCAR-5 ovarian.
In assay [10] the test system is HL-60(TB) leukemia.

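A five-concentration, 48-hour dose response in 96-well plates underlies each endpoint, interpolated linearly between surrounding concentrations. TGI: total growth inhibition.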

Regarding `CCOCC(=O)N[C@H]1CCc2cc(OC)c(OC)c(OC)c2-c2ccc(SC)c(=O)cc21`, the TGI in assay [1] is greater than 100 µM; in assay [2], greater than 45.8 µM; in [3], greater than 100 µM; in [4], greater than 100 µM; in assay [5], less than 0.01 µM; in assay [6] it was greater than 51.4 µM. Further, the TGI in assay [7] is greater than 100 µM; in [8], 2.31 µM; in assay [9] it was greater than 100 µM; in [10], less than 0.0347 µM.

In the case of `CC(=O)O[C@H]1CC[C@@]2(C)C(CC[C@]3(C)C2CC[C@]2(C)Oc4c(C)cc(O)cc4C[C@@H]23)C1(C)C` (stereo partly specified), the TGI in assay [1] stood at 25.8 µM; in assay [2] it was 21.8 µM; in assay [3], 7.12 µM; in assay [4] it was 13.6 µM; in assay [5], 18.4 µM; in assay [7] it was 23.7 µM. For the same compound, the TGI was 23.6 µM in assay [9] and 14.7 µM in assay [10].

Take `CCN(CC)CC(=O)/C=C/c1ccc(C)cc1`: the TGI in [1] amounted to 32.7 µM; in [2] it was 31.7 µM; in assay [3], 78.8 µM; in assay [4], 33 µM; in assay [5] it was 33.1 µM; in [7], 32.5 µM. For the same compound, the TGI in assay [9] was greater than 100 µM; in [10], 52 µM.

The record behind these values is PubChem BioAssay (NCI).
